Measurements from patent US20100063041A1, “NOVEL PHENYLPROPIONIC ACID DERIVATIVES AS PEROXISOME PROLIFERATOR-ACTIVATED GAMMA RECEPTOR MODULATORS, METHOD OF THE SAME, AND PHARMACEUTICAL COMPOSITION COMPRISING THE SAME” (priority 2007, published 2010).
Where a chain is given by its changes, count along the chain named.

Tests used:
[1] = test system: diabetic male mice (db/db mice); assay: blood glucose-lowering effects in mice with hyperglycemic diabetes; assay type: in vivo; conditions: for % Inhibition vs. Control / Blood glucose D5: oral once a day for 5 days
Protocol: Effects of PPAR compounds on a blood glucose level were evaluated in 7-week-old diabetic male mice (db/db mice). Blood was collected from caudal veins of the diabetic animals to which the drug was administered once a day for 5 consecutive days, and the blood glucose level was then measured with a blood glucose test meter (ACCU CHEK Active®).

Mouse PPAR-α = biological target: T1, Mouse PPAR-α (Mus musculus, UniProt P23204); assay: transactivation assay (GAL4 chimeric receptor, luciferase) in CV-1 cells; assay type: cell-based; conditions: for Emax: CV-1, Relative Response % to maximum effects of the positive control drug, read-out: Max % Mouse PPAR-α; for EC50: CV-1 cells, GAL4 chimeric receptor, 24 hours
T1 construct: expressed in transfected cells; host or cells: CV-1 (CCL-70, ATCC)
T1 sequence (P23204 239-466 limits assumed): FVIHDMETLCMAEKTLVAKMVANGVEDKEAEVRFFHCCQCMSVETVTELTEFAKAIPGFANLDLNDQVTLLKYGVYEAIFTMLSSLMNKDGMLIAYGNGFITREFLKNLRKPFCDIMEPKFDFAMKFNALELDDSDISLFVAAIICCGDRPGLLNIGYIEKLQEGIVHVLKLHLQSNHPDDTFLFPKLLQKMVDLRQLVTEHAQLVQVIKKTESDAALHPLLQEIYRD
Protocol: (§1) Following induction of transient intracellular expression of PPAR-α and -γ, an ability of the inventive compounds to induce transactivation of PPARs via activation of each PPAR was evaluated as an efficacy of the compound (transactivation assay).
(§2) For this assay, the African green monkey kidney cell line CV-1 (CCL-70, ATCC) was used as a test cell line, and PPAR-α and -γ were murine- and human-derived PPARs. Samples used were compounds prepared in Examples 19, 21, 23, 25, 26, 27, 31, 33, 34, 36, 38, 40, 42, 43 and 50. As a positive control drug, 3-4-[2-(2-phenyl-4-methyl-1,3-oxazole)ethyloxy]phenyl-(2S)-[(1-methyl-3-oxo-3-phenyl)propenyl]aminopropionic acid was used that is a PPAR-α or -γ agonist which was once under development and whose clinical trials and studies were suspended at phase III. A chimeric receptor was adopted to circumvent the probable interference due to endogenous receptor activation (Jian-Shen Q. et al., Mol Cell Biol (1995) 15(3):1817-1825). The chimeric receptor was constructed as a fusion of a PPAR-α or -γ ligand-binding domain with a DNA-binding domain of GAL4 which is a yeast transactivator.
(§3) The CV-1 cells were transiently transfected with each of chimeric receptor-expressing DNA constructs and each of DNA constructs comprising 5 copies of the GAL4 DNA-binding domain and capable of inducing expression of firefly luciferase or Renilla luciferase using a Lipofectamine Plus reagent (Invitrogen, USA). After transfection for 3 hours, the culture media were replaced with DMEM containing the above samples and 10% fetal bovine serum. 24 hours later, the firefly luciferase activity and Renilla luciferase activity were continuously assayed while adding an equal amount of a dual luciferase assay reagent (Promega, USA) to the cell-containing media. The transfection efficiency was normalized against Renilla luciferase activity (Motomura W. et al., Int J Cancer (2004) 108(1):41-6). The PPAR-α and -γ activity was determined by calculating Relative Response % to maximum effects of the positive control drug, and conducting multiple dose evaluation of the inventive compounds to calculate EC50, which is the concentration of a drug which produces 50% activation relative to maximum effects of the inventive compounds, by nonlinear regression analysis.

Human PPAR-γ = biological target: T2, Human PPAR-γ (Homo sapiens, UniProt P37231); assay: as above; assay type: cell-based; conditions: for Emax: CV-1, Relative Response % to maximum effects of the positive control drug, read-out: Max % Human PPAR-γ; for EC50: CV-1 cells, GAL4 chimeric receptor, 24 hours
T2 construct: expressed in transfected cells; host or cells: CV-1 (CCL-70, ATCC)
T2 sequence (P37231 238-503 limits assumed): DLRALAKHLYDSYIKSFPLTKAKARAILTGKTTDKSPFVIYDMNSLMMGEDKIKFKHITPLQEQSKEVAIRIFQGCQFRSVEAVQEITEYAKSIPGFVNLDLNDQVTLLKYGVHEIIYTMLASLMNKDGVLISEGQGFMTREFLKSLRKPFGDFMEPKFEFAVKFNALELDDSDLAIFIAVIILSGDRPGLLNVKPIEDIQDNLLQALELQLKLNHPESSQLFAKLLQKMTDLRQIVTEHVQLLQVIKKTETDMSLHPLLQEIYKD
Protocol: as §1, §2, §3

Human PPAR-α = biological target: T3, Human PPAR-α (Homo sapiens, UniProt Q07869); assay: as above; assay type: cell-based; conditions: for Emax: CV-1, Relative Response % to maximum effects of the positive control drug, read-out: Max % Human PPAR-α; for EC50: CV-1 cells, GAL4 chimeric receptor, 24 hours
T3 construct: expressed in transfected cells; host or cells: CV-1 (CCL-70, ATCC)
T3 sequence (Q07869 239-466 limits assumed): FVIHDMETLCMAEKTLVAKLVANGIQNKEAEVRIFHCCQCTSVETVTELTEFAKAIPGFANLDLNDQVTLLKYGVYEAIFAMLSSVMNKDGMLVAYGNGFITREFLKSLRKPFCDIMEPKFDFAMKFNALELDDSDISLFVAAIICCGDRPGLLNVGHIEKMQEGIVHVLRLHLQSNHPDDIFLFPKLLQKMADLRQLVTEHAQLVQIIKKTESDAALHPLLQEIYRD
Protocol: as §1, §2, §3

Mouse PPAR-γ = biological target: T4, Mouse PPAR-γ (Mus musculus, UniProt P37238); assay: as above; assay type: cell-based; conditions: for Emax: CV-1, Relative Response % to maximum effects of the positive control drug, read-out: Max % Mouse PPAR-γ; for EC50: CV-1 cells, GAL4 chimeric receptor, 24 hours
T4 construct: expressed in transfected cells; host or cells: CV-1 (CCL-70, ATCC)
T4 sequence (P37238 238-503 limits assumed): T2 sequence (P37231 238-503 limits assumed) with S93N, V98I, S146N, L226V, Q245H
Protocol: as §1, §2, §3

Trap220 = conditions: cited from earlier work
[2] = 12-week clinical, P>0.05, cited from earlier work

| Structure (SMILES) | Emax (Mouse PPAR-α) [%] | Emax (Human PPAR-γ) [%] | EC50 (Human PPAR-γ) [nM] | Emax (Human PPAR-α) [%] | Emax (Mouse PPAR-γ) [%] | EC50 (Mouse PPAR-γ) [nM] | EC50 (Human PPAR-α) [nM] | EC50 (Mouse PPAR-α) [nM] | % Inhibition vs. Control ([1]; 0.3 mg/kg) [%] | Blood glucose D5 ([1]; 0.3 mg/kg) [mg/dL] | % Inhibition vs. Control ([1]; 1 mg/kg) [%] | Blood glucose D5 ([1]; 1 mg/kg) [mg/dL] | % Inhibition vs. Control ([1]; 3 mg/kg) [%] | Blood glucose D5 ([1]; 3 mg/kg) [mg/dL] | Blood glucose D0 ([1]; oral, 0.3 mg/kg) [mg/dL] | Blood glucose D0 ([1]; oral, 1 mg/kg) [mg/dL] | Blood glucose D0 ([1]; oral, 3 mg/kg) [mg/dL] | % Inhibition vs. Control ([1]; 10 mg/kg) [%] | Blood glucose D5 ([1]; 10 mg/kg) [mg/dL] | Blood glucose D0 ([1]; oral, 10 mg/kg) [mg/dL] | also measured |
| --- | --- | --- | --- | --- | --- | --- | --- | --- | --- | --- | --- | --- | --- | --- | --- | --- | --- | --- | --- | --- | --- |
| CCO[C@@H](Cc1ccc(OCc2sc(-c3ccc(-c4cc(C(C)(C)C)on4)cc3)cc2C)cc1)C(=O)O [Example 48, (S)-3-(4-((5-(4-(5-tert-butylisoxazol-3-yl)phenyl)-3-methylthiophen-2-yl)methoxy)phenyl)-2-ethoxypropionic acid] | 25 | 27 | 7 | 22 | 24 | 31 | 2830 | 12100 | – | – | 24 | 375 ± 25 | 30 | 347 ± 70 | – | 452 ± 22 | 453 ± 20 | 43 | 280 ± 40 | 453 ± 43 | – |
| O=S(=O)(Nc1cc(Cl)c(Oc2cnc3ccccc3c2)c(Cl)c1)c1ccc(Cl)cc1Cl [INT-131, reference compound] | – | – | – | – | – | – | – | – | – | – | 8 | 350 ± 31 | 25 | 286 ± 34 | – | 381 ± 30 | 382 ± 31 | 38 | 237 ± 19 | 382 ± 28 | ED30 ([1]; oral, blood glucose): 4 mg/kg; binding capacity for Trap220 (Trap220): attenuated binding capacity |
| CC(=O)NCCOC(=O)[C@H](Oc1cccc(C(F)(F)F)c1)c1ccc(Cl)cc1 [metaglidasen] | – | – | – | – | – | – | – | – | – | – | – | – | – | – | – | – | – | – | – | – | edema incidence rate ([2]; 20% in control group): 7.2%; body weight ([2]; +1.3 kg in control group): +0.6 kg |

Now from value to molecule, other results behind:

| Emax (Mouse PPAR-α) [%] | Emax (Human PPAR-γ) [%] | EC50 (Human PPAR-γ) [nM] | Emax (Human PPAR-α) [%] | Emax (Mouse PPAR-γ) [%] | EC50 (Mouse PPAR-γ) [nM] | EC50 (Human PPAR-α) [nM] | EC50 (Mouse PPAR-α) [nM] | Structure (SMILES) | % Inhibition vs. Control ([1]; 0.3 mg/kg) [%] | Blood glucose D5 ([1]; 0.3 mg/kg) [mg/dL] | % Inhibition vs. Control ([1]; 1 mg/kg) [%] | Blood glucose D5 ([1]; 1 mg/kg) [mg/dL] | % Inhibition vs. Control ([1]; 3 mg/kg) [%] | Blood glucose D5 ([1]; 3 mg/kg) [mg/dL] | Blood glucose D0 ([1]; oral, 0.3 mg/kg) [mg/dL] | Blood glucose D0 ([1]; oral, 1 mg/kg) [mg/dL] | Blood glucose D0 ([1]; oral, 3 mg/kg) [mg/dL] | % Inhibition vs. Control ([1]; 10 mg/kg) [%] | Blood glucose D5 ([1]; 10 mg/kg) [mg/dL] | Blood glucose D0 ([1]; oral, 10 mg/kg) [mg/dL] | also measured |
| --- | --- | --- | --- | --- | --- | --- | --- | --- | --- | --- | --- | --- | --- | --- | --- | --- | --- | --- | --- | --- | --- |
| 4 | 15 | 472 | 0 | 18 | 883 | – | – | CCO[C@@H](Cc1ccc(OCc2sc(-c3ccc(-c4csc(C)n4)cc3)cc2C)cc1)C(=O)O [Example 21, (S)-2-ethoxy-3-(4-((3-methyl-5-(4-(2-methylthiazol-4-yl)phenyl)thiophen-2-yl)methoxy)phenyl)propionic acid] | 28 | 354 ± 67 | 29 | 354 ± 58 | 36 | 319 ± 63 | 483 ± 38 | 482 ± 45 | 483 ± 45 | – | – | – | % Inhibition vs. Control ([1]; 0.1 mg/kg): 16%; Blood glucose D5 ([1]; 0.1 mg/kg): 416 ± 45 mg/dL; Blood glucose D0 ([1]; oral, 0.1 mg/kg): 485 ± 44 mg/dL |
| 9 | 32 | 111 | 18 | 31 | 322 | 1010 | – | CCO[C@@H](Cc1ccc(OCc2sc(-c3ccc(-c4nnn(COC)n4)cc3)cc2C)cc1)C(=O)O [Example 32, (S)-2-ethoxy-3-(4-((5-(4-(2-(methoxymethyl)-2H-tetrazol-5-yl)phenyl)-3-methylthiophen-2-yl)methoxy)phenyl)propionic acid] | 21 | 416 ± 53 | – | – | 61 | 205 ± 42 | 500 ± 32 | – | 498 ± 30 | – | – | – | – |
| 21 | 37 | 41 | 25 | 48 | 354 | 2300 | 4300 | CCO[C@@H](Cc1ccc(OCc2sc(-c3ccc(-c4cc(COC)on4)cc3)cc2C)cc1)C(=O)O [Example 36, (S)-2-ethoxy-3-(4-((5-(4-(5-(methoxymethyl)isoxazol-3-yl)phenyl)-3-methylthiophen-2-yl)methoxy)phenyl)propionic acid] | – | – | 33 | 381 ± 73 | – | – | – | 577 ± 15 | – | 62 | 278 ± 56 | 577 ± 16 | – |
| 19 | 30 | 62 | 23 | 34 | 142 | 3150 | 6160 | CCO[C@@H](Cc1ccc(OCc2sc(-c3ccc(-c4cc(C)no4)cc3)cc2C)cc1)C(=O)O [Example 41, (S)-2-ethoxy-3-(4-((3-methyl-5-(4-(3-methylisoxazol-5-yl)phenyl)thiophen-2-yl)methoxy)phenyl)propionic acid] | 20 | 378 ± 44 | 36 | 304 ± 13 | 46 | 257 ± 40 | 422 ± 36 | 422 ± 30 | 423 ± 35 | – | – | – | % Inhibition vs. Control ([1]; 0.1 mg/kg): 4%; Blood glucose D5 ([1]; 0.1 mg/kg): 455 ± 67 mg/dL; Blood glucose D0 ([1]; oral, 0.1 mg/kg): 422 ± 34 mg/dL |
